Laboratory results as given in US20200163332A1, “METHOD OF IMPROVING CROP SAFETY” (Bayer CropScience LP, priority 2017, published 2020).
“And” between values parts separate entries of the source, which are not always exact repeats. Equal values may be shown once. Read-outs that look alike come from different tables or passages of the source.

Columns and labels:
[1] = test system: Soybean seeds of the variety Williams 82; experiment: Example A: soybean seed treatment with antioxidants, with or without Fluopyram; cotyledon total and healthy area; settings: for Average Cotyledon Area (mm^2) Growth Promotion with Antioxidant / Increase in Healthy Area % Difference: antioxidant at effective concentration versus no antioxidant; for Average Cotyledon Area / Average % Healthy Area / Average Healthy Area: after 10 days
[2] = test system: Soybean seeds of the variety Williams 82; settings: with ILEVO 0.15 mg ai per seed, versus ILEVO alone, CaCl2•2 H2O 10.000 mM, about 10 days after planting
Protocol: All solutions were pH adjusted to pH 5.6-6.2. In addition, a seed treatment was prepared with a cobalt and molybdenum combination (“CoMo”) containing the cobalt chloride and sodium molybdate applied at the respective doses shown in Table 9. A commercial zinc solution was also applied as a seed treatment. “Macro”, “Micro” and “Complete” nutrient solution cocktails which combined all the respective nutrients from Table 9 into one nutrient solution were included as seed treatments.
About 10 days after planting the treated seeds, the emerging seedlings were analyzed to determine their average plant height and average unifoliate leaf area.

[3] = test system: Soybean seeds of the variety Williams 82; settings: for Average Area (Total Leaf Area) / Average Height (Plant Height): 15 Days after Planting
Protocol: Plant heights and total leaf area were determined 15 days after planting. The total leaf area was calculated by adding the unifoliate leaf area and the trifoliate leaf area of a soybean plant. Between 11 and 15 replicates were evaluated for each measurement. Average values along with their standard errors are reported.

[4] = UTC seeds (no FLU) plus antioxidant at effective concentration (Beta-Carotene 200 μM, Co-enzyme Q10 3 μM, Meso-Zeaxanthin 250 ppm, L-ascorbic acid 800 ppm, alpha tocopherol phosphate disodium 100 ppm)
[5] = UTC seeds (no FLU) plus antioxidant at effective concentration (as in E7)
[6] = seeds treated with FLU 0.15 mg ai/seed plus antioxidant at effective concentration (200 μM, 3 μM, 250 ppm, 800 ppm, 100 ppm as in E4)
[7] = seeds treated with FLU 0.15 mg ai/seed plus antioxidant at effective concentration (Beta-Carotene 200 μM, Co-enzyme Q10 3 μM, Meso-Zeaxanthin 250 ppm, L-ascorbic acid 800 ppm, alpha tocopherol phosphate disodium 100 ppm)
[8] = ILEVO 0.15 mg ai per seed + 10 mM CaCl2•2 H2O
[9] = ILEVO 0.15 mg ai per seed + 75 mM CaCl2•2 H2O
[10] = ILEVO 0.15 mg ai per seed + 150 mM CaCl2•2 H2O
[11] = calcium chloride added to ILEVO seed treatment versus ILEVO alone, effect increased at higher concentrations
[12] = two additional soybean varieties besides Williams 82
[13] = FLU 0.15 mg ai/seed alone (antioxidant 0 μM / 0 ppm; control of the respective antioxidant series)

Compound | Average Cotyledon Area (mm^2) Growth Promotion with Antioxidant ([1]; FLU-treated seeds) [mm^2] | Increase in Healthy Area % Difference ([1]; FLU-treated seeds) [%] | Average Cotyledon Area [1, 4] [mm^2] | Average % Healthy Area [1, 5] [%] | Average Healthy Area [1, 5] [mm^2] | Average Cotyledon Area (mm^2) Growth Promotion with Antioxidant ([1]; UTC seeds (no FLU)) [mm^2] | Increase in Healthy Area % Difference ([1]; UTC seeds (no FLU)) [%] | Average % Healthy Area [1, 6] [%] | Average Healthy Area [1, 6] [mm^2] | Average Cotyledon Area [1, 7] [mm^2] | other results
COC1=C(OC)C(=O)C(C/C=C(\C)CC/C=C(\C)CC/C=C(\C)CC/C=C(\C)CC/C=C(\C)CC/C=C(\C)CC/C=C(\C)CC/C=C(\C)CC/C=C(\C)CCC=C(C)C)=C(C)C1=O [Co-enzyme Q10] | 19.49 | 10.25 | 416.55 | 100.00 | 416.55 | 47.57 | 0.00 | 76.54 | 240.72 | 312.31 | –
[Ca+2].[Cl-].[Cl-] [CaCl2•2 H2O, calcium chloride] | – | – | – | – | – | – | – | – | – | – | average plant height ([2]; FIG. 1): significantly increased; average unifoliate leaf area ([2]; FIG. 2): significantly increased; Average Area (Total Leaf Area) [3, 8]: 46.70 cm^2; Average Height (Plant Height) [3, 8]: 12.93 cm; Average Area (Total Leaf Area) [3, 9]: 53.89 cm^2; Average Height (Plant Height) [3, 9]: 13.69 cm; Average Area (Total Leaf Area) [3, 10]: 53.03 cm^2; Average Height (Plant Height) [3, 10]: 14.31 cm; height of the soybean plants [3, 11]: significantly increased; total leaf area of the soybean plants [3, 11]: significantly increased; effect on height of soybean plants treated with ILEVO [3, 12]: positive effect; effect on leaf area of soybean plants treated with ILEVO [3, 12]: positive effect
Meso-Zeaxanthin | 78.23 | 10.05 | 350.59 | 99.66 | 349.18 | 30.66 | 4.59 | 69.68 | 230.46 | 331.07 | –
O=C(NCCc1ncc(C(F)(F)F)cc1Cl)c1ccccc1C(F)(F)F [FLU, Fluopyram, reference compound] | – | – | – | – | – | – | – | – | – | – | Average % Healthy Area [1, 13]: 59.63% and 67.93% and 68.20% and 60.08% and 66.29%; Average Cotyledon Area [1, 13]: 252.85 mm^2 and 307.56 mm^2 and 290.71 mm^2 and 237.73 mm^2 and 292.81 mm^2; Average Healthy Area [1, 13]: 153.20 mm^2 and 210.37 mm^2 and 199.35 mm^2 and 142.71 mm^2 and 195.10 mm^2
